These results are taken from patent US20250375398A1.

As a reminder, the viability is a per cent measure of how many cells are alive, often set against a control.

Read-outs that look alike come from different tables or passages of the source.

Series [1] relates to SARS-CoV-2. It counts as cell-based. To be noted: remdesivir alone, dose-dependent; control around 10^6 TCID50/mL.
For series [2], the system named is SARS-CoV-2. As to conditions: for host cell viability, normalized to remdesivir alone (5 μM) / host cell viability (in words): infected Vero E6, 72 hours.
The subject of series [3] is SARS-CoV-2 virus [B.1.351]. It counts as in vivo, mice.
Series [4] concerns SARS-CoV-2. The series is described as follows: microbe, parasite or virus in culture.
Series [5] concerns SARS-CoV-2 virus [B.1.351]. The format is in vivo, mice. As to conditions: day 4.

With `CCC(CC)COC(=O)[C@H](C)N[P@](=O)(OC[C@H]1O[C@@](C#N)(c2ccc3c(N)ncnn23)[C@H](O)[C@@H]1O)Oc1ccccc1` [Remdesivir], the “viral titer of SARS-CoV-2” value in series [1] is “zero”. In addition, the “host cell viability, normalized to remdesivir alone (5 μM)” value (shortened to “host cell viability, normalized”) was determined as 19.8% in series [2] (hypericin 0 μM, remdesivir 0.3125 μM); 21.9% in series [2] (hypericin 0 μM, remdesivir 0.625 μM); 25.2% in series [2] (hypericin 0 μM, remdesivir 1.25 μM); 38.1% in series [2] (hypericin 0 μM, remdesivir 2.5 μM). Further, in series [2] (remdesivir (5 μM) alone), the “host cell viability (in words)” value is given as “dose-dependently improved host cell viability”. Moreover, the “infectious titers in lung, in words” value in series [3] (remdesivir 25 mg/kg daily intraperitoneally, day 4 post infection) was “strongest antiviral effect in reducing infectious titer”. The “infectious titers in lung (plaque forming unit per mg of tissues), in words” value in series [3] (remdesivir 5, 10 or 25 mg/kg daily intraperitoneally from day 1 post infection, day 4) is “dose-dependent effect on reducing infectious titers”. In addition, the viability at 5 µM in series [4] (Severe acute respiratory syndrome coronavirus 2, Vero C1008, 72 h, read-out: host cell viability, normalized to remdesivir alone (5 μM)) amounted to 100%. The viability at 1.25 µM in series [4] (Severe acute respiratory syndrome coronavirus 2, Vero C1008, read-out: host cell viability) amounted to 26%. Further, the “infectious titers in lung compared to vehicle, in words” value in series [5] (Remdesivir 10 mg/kg daily from day 1 post infection) was “did not impact infectious titers compared to vehicle”. Besides, in series [5] (Remdesivir 25 mg/kg daily from day 1 post infection), the “mice in which all infectious titers in lung were eliminated” value is given as 4 out of 7.

On to `Cc1cc(O)c2c(=O)c3c(O)cc(O)c4c5c(O)cc(O)c6c(=O)c7c(O)cc(C)c8c1c2c(c34)c(c78)c65` [Hypericin], for which the “host cell viability, normalized” value in series [2] (hypericin 1.563 μM, remdesivir 0 μM) is listed as 14.6%; in series [2] (hypericin 3.125 μM, remdesivir 0 μM), 12.9%; in series [2] (hypericin 6.25 μM, remdesivir 0 μM), 12.8%; in series [2] (hypericin 12.5 μM, remdesivir 0 μM), 20.4%; in series [2] (hypericin 25 μM, remdesivir 0 μM) it was 62.0%; in series [2] (hypericin 50 μM, remdesivir 0 μM) it was 62.6%. In addition, the “host cell viability, normalized” value in series [2] (hypericin 100 μM, remdesivir 0 μM) amounted to 38.0%. Moreover, the “host cell viability (in words)” value in series [2] (hypericin (25-50 μM) alone) is reported as “modest improvements in host cell viability”. In addition, the host cell viability in series [2] (hypericin alone, 12.5-50 μM) is recorded as 20-62%. Also, in series [5] (Hypericin 20 mg/kg, pre-treatment from two days prior to infection), the “mice in which all infectious titers in lung were eliminated” value is given as 5 out of 7.
